Test results from US8883480B2 (priority 2008, dated 2014).
Bridge positions count the residues as written; N and C are the ends. Peptide text beside a SMILES is read from it.

Tests used:
[1] = biological target: avian influenza virus (AIV) subtype H9N2, purified whole virus particles; experiment: cell-based or functional assay
Streptavidin = Streptavidin (Streptomyces avidinii, UniProt P22629); format: binding
[2] = system: avian influenza virus H9N2; format: cell-based
AIV H9N2 = system: AIV H9N2; design: species or system avian influenza virus H9N2; settings: in vivo

Streptavidin, sequence (P22629 25-183, species assumed): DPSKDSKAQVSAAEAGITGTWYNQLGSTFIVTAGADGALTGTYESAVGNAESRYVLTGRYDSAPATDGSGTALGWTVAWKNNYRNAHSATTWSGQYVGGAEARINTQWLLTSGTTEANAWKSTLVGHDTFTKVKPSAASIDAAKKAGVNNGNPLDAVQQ

| Compound | Frequency of sequences (%) (Streptavidin) | Agglutination of RBC (+AIV 32 HAU; 50 μl) [2] | Agglutination of RBC (−AIV 32 HAU; 50 μl) [2] | AIV titer in the allantoic fluid (haemagglutination titer) (AIV H9N2) | also measured |
| --- | --- | --- | --- | --- | --- |
| synthetic linear peptide NDFRSKT | – | – | – | – | IC50 [1]: < 100 µM |
| HPQFLSL | 55% | – | – | – | – |
| NDFRSKT | – | No and Yes | No | reduced the AIV titer | – |
| C[C@@H](O)[C@@H]1NC(=O)[C@H](CCCCN)NC(=O)[C@H](CO)NC(=O)[C@H](CCCNC(=N)N)NC(=O)[C@H](Cc2ccccc2)NC(=O)[C@H](CC(=O)O)NC(=O)[C@H](CC(N)=O)NC(=O)[C@@H](N)CSSC[C@@H](C(=O)O)NC1=O [CNDFRSKTC] (H-CNDFRSKTC-OH; disulfide 1-9 (inferred); N-terminus and C-terminus assumed) | – | No and Yes | No | reduced the AIV titer | IC50 (AIV H9N2; read-out: IC50, inhibition of propagation of AIV H9N2): < 100 µM |
| GLYNHPQ | 27% | – | – | – | – |
